Measured values as given in ChEMBL document CHEMBL1201862, “PubChem BioAssay data set” (2004).
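Compound exposure: 48 hours, 5 concentrations, 96-well plates. At the GI50, growth is halved.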 Activity calls are given as the source filed them. No stated cut-off is given here; in the data, active = GI50 up to about 1.1 µM and inactive = higher.

Key:
Assay in all cases: NCI tumour cell line growth inhibition, 48 h
HT-29 = tested on: HT-29
MDA-N = tested on: MDA-N
NCI-H460 = tested on: NCI-H460
SK-MEL-28 = tested on: SK-MEL-28
OVCAR-4 = tested on: OVCAR-4
UACC-62 = tested on: UACC-62
K562 = tested on: K562
LOX IMVI = tested on: LOX IMVI
HOP-18 = tested on: HOP-18
HCC 2998 = tested on: HCC 2998
U-251 = tested on: U-251
UACC-257 = tested on: UACC-257
CCRF-CEM = tested on: CCRF-CEM
SF-295 = tested on: SF-295
SF-268 = tested on: SF-268
SNB-78 = tested on: SNB-78
TK-10 = tested on: TK-10
HCT-15 = tested on: HCT-15
MOLT-4 = tested on: MOLT-4

Compound	GI50 (HT-29)	GI50 (MDA-N)	GI50 (NCI-H460)	GI50 (SK-MEL-28)	GI50 (OVCAR-4)	GI50 (UACC-62)	GI50 (K562)	GI50 (LOX IMVI)	GI50 (HOP-18)	GI50 (HCC 2998)	GI50 (U-251)	GI50 (UACC-257)	GI50 (CCRF-CEM)	GI50 (SF-295)	GI50 (SF-268)	GI50 (SNB-78)	GI50 (TK-10)	GI50 (HCT-15) [µM]	GI50 (MOLT-4)
CC(C)Cc1ccc(C(C)/C=C2\CCC(CN3CCOCC3)C2=O)cc1 (configuration not stated)	6.73 µM (inactive)	12.1 µM (inactive)	14.8 µM (inactive)	9.12 µM (inactive)	17.7 µM (inactive)	12.5 µM (inactive)	1.92 µM (inactive)	2.33 µM (inactive)	7.87 µM (inactive)	11.6 µM (inactive)	13.5 µM (inactive)	7.14 µM (inactive)	1.3 µM (inactive)	15.3 µM (inactive)	6.87 µM (inactive)	20.9 µM (inactive)	5.82 µM (inactive)	2.94	1.64 µM (inactive)
C/C(=N\Nc1nnc(S)n1N)c1c(O)cc(C)oc1=O	> 100 µM (inactive)		> 100 µM (inactive)	> 100 µM (inactive)	99.3 µM (inactive)	> 100 µM (inactive)	> 100 µM (inactive)	> 100 µM (inactive)	> 100 µM (inactive)	> 100 µM (inactive)	> 100 µM (inactive)	> 100 µM (inactive)	> 100 µM (inactive)	> 100 µM (inactive)	> 100 µM (inactive)	> 100 µM (inactive)	> 100 µM (inactive)	> 100	> 100 µM (inactive)
